Measured values published in patent publication EP3327020A1, “CITRATE SALTS OF A JANUS KINASE (JAK) INHIBITOR” (SANDOZ AG, priority 2016, dated 2018).
Values after ≈ are worked out from the molar mass of the structure shown. “Also recorded” adds a separate entry of the source.

Test: Solubility in 0.1N aqueous HCl (saturated solution stirred at 37 °C for 1 hour, filtered, baricitinib concentration of the mother liquor determined by HPLC)
Type: physicochemical
Conditions: for solubility at 1 h: simulated gastric fluid, thermodynamic from solid, read-out: Solubility in 0.1N aqueous HCl after 1 hour
Description: The solubilities of baricitinib free base, phosphate, trifluoroacetate, monocitrate and dicitrate in 0.1N HCl have been determined. […] Thereafter, the solid was removed by filtration and the baricitinib concentration of the mother liquor was determined by HPLC.
The absolute solubility values were calculated from a calibration curve generated with solutions of known baricitinib concentrations and are listed in Table 5. Table 5: Comparative solubility data in 0.1N aqueous hydrochloric acid

[1] = 0.1N aqueous HCl, 37 °C, 1 hour, baricitinib concentration by HPLC

Row | SMILES | Solubility in 0.1N aqueous HCl after 1 hour [1] [mg/mL] | solubility compared to the free base form (in words) (0.1N aqueous hydrochloric acid, listed as phosphate salt of baricitinib) | solubility at 1 h [1] [mg/mL] | solubility relative to the solubility of baricitinib free base (0.1N aqueous hydrochloric acid)
1 | CCS(=O)(=O)N1CC(CC#N)(n2cc(-c3ncnc4[nH]ccc34)cn2)C1.O=P(O)(O)O [Phosphate salt of WO 2009/114512 A1] | 26 | only a slightly increased solubility; also recorded: only slightly improved solubility values |  | 
2 | CCS(=O)(=O)N1CC(CC#N)(n2cc(-c3ncnc4[nH]ccc34)cn2)C1 [{1-(Ethylsulfonyl)-3-[4-(7H-pyrrolo[2,3-d]pyrimidin-4-yl)-1H-pyrazol-1-yl]azetidin-3-yl}acetonitrile] |  |  | 25 (≈ 67.3 mM) | 
3 | CCS(=O)(=O)N1CC(CC#N)(n2cc(-c3ncnc4[nH]ccc34)cn2)C1.O=C(O)CC(O)(CC(=O)O)C(=O)O.O=C(O)CC(O)(CC(=O)O)C(=O)O [{1-(Ethylsulfonyl)-3-[4-(7H-pyrrolo[2,3-d]pyrimidin-4-yl)-1H-pyrazol-1-yl]azetidin-3-yl}acetonitrile dicitrate] |  |  | > 50 | more than 2 fold
4 | CCS(=O)(=O)N1CC(CC#N)(n2cc(-c3ncnc4[nH]ccc34)cn2)C1.O=C(O)CC(O)(CC(=O)O)C(=O)O [{1-(Ethylsulfonyl)-3-[4-(7H-pyrrolo[2,3-d]pyrimidin-4-yl)-1H-pyrazol-1-yl]azetidin-3-yl}acetonitrile monocitrate] |  |  | > 50 | more than 2 fold
